Experimental data: paper PMC12494099, “Discovery and Characterization of Novel IKZF1/3 Glue Degraders against Multiple Hematological Cancer Cell Lines” (Oncology Research, 2025)

Experiments:
Type in all cases: cell-based
[1] = tested on: Ocl-Ly3; experiment: Cell viability (CCK-8) assay; settings: 96 h, CCK-8
Description: (§1) The plated at a density of 15,000 cells per well, and each well contained 100 µL of medium. Subsequently, different compounds (MGD-AX, MGD-BX, MGD-CX) were added to each well. […] To evaluate the antiproliferative effects of these compounds, the Cell Counting Kit-8 (CCK-8, #CX007, Epizyme, Shanghai, China) was used. All procedures were carried out in strict accordance with the manufacturer’s instructions (Dojindo Laboratories, Mamoto Ken, Japan).

[2] = tested on: MV-4-11; experiment: Cell viability (CCK-8) assay; settings: 96 h, CCK-8
Description: as §1

[3] = tested on: NCI-H929; experiment: Cell viability (CCK-8) assay
Description: as §1

[4] = target: T1, IKZF1-HiBiT (Homo sapiens, UniProt Q13422+Q96SW2); experiment: Quantitative degradation assay using the HiBiT system (HEK293T); settings: HEK-293T; HEK293T IKZF1-HiBiT, 24 h; read-out: maximal degradation (Dmax) on IKZF1
T1 construct: expressed in transfected cells; host or cells: HEK293T
T1 sequence (Q13422 whole entry): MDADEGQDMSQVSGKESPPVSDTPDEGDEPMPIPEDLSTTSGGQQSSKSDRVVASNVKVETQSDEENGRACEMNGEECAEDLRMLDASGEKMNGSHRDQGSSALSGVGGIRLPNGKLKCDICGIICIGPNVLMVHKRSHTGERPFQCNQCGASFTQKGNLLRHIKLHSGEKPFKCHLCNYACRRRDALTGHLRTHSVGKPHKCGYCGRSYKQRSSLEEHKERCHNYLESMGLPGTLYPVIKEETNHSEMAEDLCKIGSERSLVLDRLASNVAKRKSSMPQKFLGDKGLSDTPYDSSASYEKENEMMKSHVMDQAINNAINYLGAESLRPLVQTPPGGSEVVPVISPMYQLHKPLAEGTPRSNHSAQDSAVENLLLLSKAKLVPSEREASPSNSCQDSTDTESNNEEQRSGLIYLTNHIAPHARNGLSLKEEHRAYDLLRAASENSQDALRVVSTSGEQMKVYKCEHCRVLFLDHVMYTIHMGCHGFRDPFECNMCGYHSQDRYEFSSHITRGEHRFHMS
T1 sequence (Q96SW2 whole entry): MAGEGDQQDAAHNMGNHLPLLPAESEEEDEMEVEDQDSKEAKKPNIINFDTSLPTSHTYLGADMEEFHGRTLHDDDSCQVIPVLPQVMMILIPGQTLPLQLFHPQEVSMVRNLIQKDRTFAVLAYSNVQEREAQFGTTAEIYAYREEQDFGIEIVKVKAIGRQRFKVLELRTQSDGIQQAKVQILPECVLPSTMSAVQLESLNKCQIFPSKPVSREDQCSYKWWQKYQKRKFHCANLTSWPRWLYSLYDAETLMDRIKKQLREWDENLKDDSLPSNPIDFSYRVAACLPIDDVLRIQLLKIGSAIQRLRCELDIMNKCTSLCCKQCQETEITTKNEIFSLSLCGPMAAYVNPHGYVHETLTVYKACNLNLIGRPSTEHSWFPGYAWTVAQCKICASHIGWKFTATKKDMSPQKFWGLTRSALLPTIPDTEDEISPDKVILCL
T1 sequence (Q16531 whole entry partner): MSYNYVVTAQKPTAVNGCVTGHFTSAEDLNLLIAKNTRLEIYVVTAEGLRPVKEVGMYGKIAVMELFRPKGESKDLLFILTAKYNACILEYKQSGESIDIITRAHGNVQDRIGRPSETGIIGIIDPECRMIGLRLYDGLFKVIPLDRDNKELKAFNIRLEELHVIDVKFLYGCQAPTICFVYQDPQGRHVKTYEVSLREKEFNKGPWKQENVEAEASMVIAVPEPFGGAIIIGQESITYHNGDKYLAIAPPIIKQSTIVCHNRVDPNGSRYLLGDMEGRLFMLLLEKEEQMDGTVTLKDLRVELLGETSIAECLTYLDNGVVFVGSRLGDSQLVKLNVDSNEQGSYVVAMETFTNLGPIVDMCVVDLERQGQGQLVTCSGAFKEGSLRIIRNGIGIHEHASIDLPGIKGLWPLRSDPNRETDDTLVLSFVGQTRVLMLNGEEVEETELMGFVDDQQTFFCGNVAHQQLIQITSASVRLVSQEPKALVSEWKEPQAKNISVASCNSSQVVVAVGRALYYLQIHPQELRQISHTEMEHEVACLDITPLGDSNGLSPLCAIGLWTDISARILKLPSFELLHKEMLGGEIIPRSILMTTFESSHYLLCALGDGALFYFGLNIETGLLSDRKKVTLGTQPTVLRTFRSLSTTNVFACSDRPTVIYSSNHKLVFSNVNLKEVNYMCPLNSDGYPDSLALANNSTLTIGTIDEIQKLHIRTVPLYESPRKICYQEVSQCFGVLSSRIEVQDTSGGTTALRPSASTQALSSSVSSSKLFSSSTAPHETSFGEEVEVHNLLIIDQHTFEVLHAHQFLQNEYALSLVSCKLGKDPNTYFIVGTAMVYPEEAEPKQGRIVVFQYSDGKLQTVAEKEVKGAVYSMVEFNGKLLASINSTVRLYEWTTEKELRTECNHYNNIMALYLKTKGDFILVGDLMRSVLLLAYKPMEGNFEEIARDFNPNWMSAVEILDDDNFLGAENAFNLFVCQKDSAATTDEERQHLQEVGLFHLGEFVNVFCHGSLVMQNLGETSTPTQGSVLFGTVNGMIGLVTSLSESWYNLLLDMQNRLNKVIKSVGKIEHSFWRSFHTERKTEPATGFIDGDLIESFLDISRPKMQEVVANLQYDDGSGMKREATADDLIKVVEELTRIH
Description: (§2) An in vitro quantitative degradation assay utilizing the HiBiT system was carried out as previously described. To evaluate the degradation of IKZF1, IKZF2, and IKZF3 proteins, HEK293T cell lines stably expressing IKZF1-, IKZF2-, IKZF3-, GSPT1- or CK1α-HiBiT were cultured in 96-well plates at 12,000 cells per well. […] After the treatment, cell lysis was carried out using the Nano-Glo HiBiT Lytic Detection System (#N3040, Promega). All lysis operations were strictly carried out according to the manufacturer’s specific protocol. Then, the SpectraMax iD3 instrument (Molecular Devices, San Jose, CA, USA) was used to detect the luminescent signals released by the HiBiT-tagged neosubstrates.

[5] = target: T2, IKZF3-HiBiT (Homo sapiens, UniProt Q96SW2+Q9UKT9); experiment: as above; settings: HEK-293T; HEK293T IKZF3-HiBiT, 24 h; read-out: maximal degradation (Dmax) on IKZF3
T2 construct: expressed in transfected cells; host or cells: HEK293T
T2 sequence (Q9UKT9 whole entry): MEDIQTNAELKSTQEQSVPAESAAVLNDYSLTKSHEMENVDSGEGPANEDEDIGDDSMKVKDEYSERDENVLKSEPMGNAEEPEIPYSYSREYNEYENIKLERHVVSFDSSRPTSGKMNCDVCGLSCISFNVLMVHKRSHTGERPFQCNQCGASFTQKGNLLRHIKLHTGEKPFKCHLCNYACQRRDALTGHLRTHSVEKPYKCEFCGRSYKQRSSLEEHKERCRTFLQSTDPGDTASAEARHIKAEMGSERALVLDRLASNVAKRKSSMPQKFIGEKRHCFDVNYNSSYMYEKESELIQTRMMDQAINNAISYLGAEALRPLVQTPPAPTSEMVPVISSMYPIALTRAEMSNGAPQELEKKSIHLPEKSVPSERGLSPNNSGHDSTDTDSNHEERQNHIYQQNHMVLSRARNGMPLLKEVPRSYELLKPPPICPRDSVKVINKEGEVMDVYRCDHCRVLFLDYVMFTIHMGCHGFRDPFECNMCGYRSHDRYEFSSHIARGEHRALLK
T2 sequence (Q96SW2 whole entry): as the sequence (Q96SW2 whole entry) above
T2 sequence (Q16531 whole entry partner): as the sequence (Q16531 whole entry partner) above
Description: as §2

Row | Molecule | IC50 ([2]; Homo sapiens, MV4-11, 96 h) [µM] | IC50 ([3]; Homo sapiens, NCI-H929, 96 h) [µM] | IC50 [2] [µM] | IC50 ([3]; 96 h) [µM] | Dmax [4] [%] | Dmax [5] [%] | IC50 [1] [µM]
1 | CC1CCCCN1Cc1cccc(C(=O)NC2CCC(=O)NC2=O)c1 (centres unmarked) [MGD-A3, N-(2,6-dioxopiperidin-3-yl)-3-((2-methylpiperidin-1-yl)methyl)benzamide] | 6.03 ± 0.58 | 5.39 ± 0.51 |  |  |  |  | 7.27 ± 0.69
2 | Nc1cccc2c1CN(C1CCC(=O)NC1=O)C2=O (centres unmarked) [Lenalidomide, reference compound] | 17.9 ± 1.7 | 7.36 ± 0.7 |  |  |  |  | 27.6 ± 2.63
3 | O=C1CCC(NC(=O)c2cccc(C(=O)N3CCSCC3)c2)C(=O)N1 (centres unmarked) [MGD-A15, N-(2,6-dioxopiperidin-3-yl)-3-(thiomorpholine-4-carbonyl)benzamide] | 4.45 ± 0.42 | 6.9 ± 0.66 |  |  |  |  | 9.43 ± 0.9
4 | CC1CCN(Cc2cccc(C(=O)NC3CCC(=O)NC3=O)c2)CC1 (centres unmarked) [MGD-A5, N-(2,6-dioxopiperidin-3-yl)-3-((4-methylpiperidin-1-yl)methyl)benzamide] | 2.03 ± 0.19 | 2.88 ± 0.28 |  |  |  |  | 4.03 ± 0.38
5 | CC1CCCC(C)N1C(=O)c1cccc(C(=O)NC2CCC(=O)NC2=O)c1 (centres unmarked) [MGD-A13, 3-(2,6-dimethylpiperidine-1-carbonyl)-N-(2,6-dioxopiperidin-3-yl)benzamide] | 9.26 ± 0.88 | 10.3 ± 0.98 |  |  |  |  | 17.2 ± 1.64
6 | CC1CCCC(C)N1Cc1cccc(C(=O)NC2CCC(=O)NC2=O)c1 (centres unmarked) [MGD-A6, 3-((2,6-dimethylpiperidin-1-yl)methyl)-N-(2,6-dioxopiperidin-3-yl)benzamide] | 3.44 ± 0.33 | 3.02 ± 0.38 |  |  |  |  | 5.9 ± 0.56
7 | Cc1nc2cccc(N)c2c(=O)n1C1CCC(=O)NC1=O (centres unmarked) [Avadomide, reference compound] | 0.85 | 0.2 |  |  | 80.4 | 83.1 | 15.5
8 | N-(2,6-dioxopiperidin-3-yl)-3-(thiomorpholinomethyl)cyclohexa-1,3-diene-1-carboxamide [MGD-A9] |  |  | 1.9 ± 0.18 | 2.11 ± 0.2 |  |  | 5.44 ± 0.52
9 | O=C1CCC(NC(=O)c2cccc(CNC3CC3)c2)C(=O)N1 (centres unmarked) [MGD-A1, 3-((cyclopropylamino)methyl)-N-(2,6-dioxopiperidin-3-yl)benzamide] | 7.34 ± 0.7 | 10.3 ± 0.98 |  |  |  |  | > 33
10 | O=C1CCC(NC(=O)c2cccc(CNCC3CC3)c2)C(=O)N1 (centres unmarked) [MGD-A2, 3-(((cyclopropylmethyl)amino)methyl)-N-(2,6-dioxopiperidin-3-yl)benzamide] | 8.3 ± 0.79 | 12.7 ± 1.21 |  |  |  |  | 21.3 ± 2.03
11 | CCN1CCN(Cc2cccc(C(=O)NC3CCC(=O)NC3=O)c2)CC1 (centres unmarked) [MGD-A8, N-(2,6-dioxopiperidin-3-yl)-3-((4-ethylpiperazin-1-yl)methyl)benzamide] | 0.8 ± 0.1 | 0.9 ± 0.13 |  |  |  |  | 4.12 ± 0.39
12 | CC1CCCN(Cc2cccc(C(=O)NC3CCC(=O)NC3=O)c2)C1 (centres unmarked) [MGD-A4, N-(2,6-dioxopiperidin-3-yl)-3-((3-methylpiperidin-1-yl)methyl)benzamide] | 3.11 ± 0.3 | 4.56 ± 0.44 |  |  |  |  | 6.33 ± 0.6

More lines, main results first:

Row | IC50 ([2]; Homo sapiens, MV4-11, 96 h) [µM] | IC50 ([3]; Homo sapiens, NCI-H929, 96 h) [µM] | IC50 [2] [µM] | IC50 ([3]; 96 h) [µM] | Dmax [4] [%] | Dmax [5] [%] | Molecule | IC50 [1] [µM]
13 | 1.93 ± 0.18 | 2.34 ± 0.22 |  |  |  |  | O=C1CCC(NC(=O)c2cccc(CN3CCOCC3=O)n2)C(=O)N1 (centres unmarked) [MGD-B9, N-(2,6-dioxopiperidin-3-yl)-6-((3-oxomorpholino)methyl)picolinamide] | 9.35 ± 0.89
14 |  |  | 7.36 ± 0.7 | 6.91 ± 0.66 |  |  | N-(2,6-dioxopiperidin-3-yl)-2-fluoro-3-(piperidin-1-ylmethyl)benzamide [MGD-C1] | 12.6 ± 1.2
15 | 15 ± 1.42 | 7.9 ± 0.75 |  |  |  |  | O=C1CCC(NC(=O)c2cccc(CN3CCCC3)n2)C(=O)N1 (centres unmarked) [MGD-B1, N-(2,6-dioxopiperidin-3-yl)-6-(pyrrolidin-1-ylmethyl)picolinamide] | 22.4 ± 2.13
16 |  |  | 1.73 ± 0.17 | 1.23 ± 0.12 |  |  | N-(2,6-dioxopiperidin-3-yl)-2-fluoro-3-((2-oxopiperidin-1-yl)methyl)benzamide [MGD-C8] | 3.28 ± 0.31
17 | 1.63 ± 0.16 | 1.33 ± 0.13 |  |  |  |  | O=C1CCC(NC(=O)c2cccc(CN3CCCCC3=O)c2F)C(=O)N1 (centres unmarked) [MGD-C6, N-(2,6-dioxopiperidin-3-yl)-2-fluoro-3-((2-oxopiperidin-1-yl)methyl)benzamide] | 5.95 ± 0.57
18 | 3.02 ± 0.29 | 4.65 ± 0.44 |  |  |  |  | O=C1CCC(NC(=O)c2cccc(CN3CCOCC3)n2)C(=O)N1 (centres unmarked) [MGD-B4, N-(2,6-dioxopiperidin-3-yl)-6-(morpholinomethyl)picolinamide] | 15 ± 1.42
19 | 1.58 ± 0.47 | 2.77 ± 0.36 |  |  |  |  | O=C1CCC(NC(=O)c2cccc(CN3CCSCC3)n2)C(=O)N1 (centres unmarked) [MGD-B5, N-(2,6-dioxopiperidin-3-yl)-6-(thiomorpholinomethyl)picolinamide] | 4.68 ± 2.44
20 | 2.22 ± 0.21 | 2.04 ± 0.19 |  |  |  |  | O=C1CCC(NC(=O)c2cccc(CN3CCCC3=O)c2F)C(=O)N1 (centres unmarked) [MGD-C5, N-(2,6-dioxopiperidin-3-yl)-2-fluoro-3-((2-oxopyrrolidin-1-yl)methyl)benzamide] | 5.05 ± 0.48
21 | 1.33 ± 0.13 | 1.77 ± 0.17 |  |  |  |  | CN1CCN(Cc2cccc(C(=O)NC3CCC(=O)NC3=O)n2)C(=O)C1 (centres unmarked) [MGD-B8, N-(2,6-dioxopiperidin-3-yl)-6-((4-methyl-2-oxopiperazin-1-yl)methyl)picolinamide] | 8.43 ± 0.8
22 | 2.43 ± 0.33 | 1.79 ± 0.27 |  |  |  |  | O=C1CCC(NC(=O)c2cccc(CN3CCSCC3)c2F)C(=O)N1 (centres unmarked) [MGD-C4, N-(2,6-dioxopiperidin-3-yl)-2-fluoro-3-(thiomorpholinomethyl)benzamide] | 5.01 ± 0.48
23 | 5.54 ± 0.53 | 4.32 ± 0.41 |  |  |  |  | O=C1CCC(NC(=O)c2cccc(CN3CCSCC3=O)n2)C(=O)N1 (centres unmarked) [MGD-B10, N-(2,6-dioxopiperidin-3-yl)-6-((3-oxothiomorpholino)methyl)picolinamide] | 13.2 ± 1.26
24 | 0.54 ± 0.05 | 0.77 ± 0.04 |  |  |  |  | CN1CCN(Cc2cccc(C(=O)NC3CCC(=O)NC3=O)c2F)CC1 (centres unmarked) [MGD-C2, N-(2,6-dioxopiperidin-3-yl)-2-fluoro-3-((4-methylpiperazin-1-yl)methyl)benzamide] | 1.64 ± 0.37
25 | 0.72 ± 0.13 | 0.92 ± 0.12 |  |  |  |  | CN1CCN(Cc2cccc(C(=O)NC3CCC(=O)NC3=O)n2)CC1 (centres unmarked) [MGD-B3, N-(2,6-dioxopiperidin-3-yl)-6-((4-methylpiperazin-1-yl)methyl)picolinamide] | 2.03 ± 0.39
26 | 6.78 ± 0.65 | 8.5 ± 0.81 |  |  |  |  | O=C1CCC(NC(=O)c2cccc(CN3CCCCC3)n2)C(=O)N1 (centres unmarked) [MGD-B2, N-(2,6-dioxopiperidin-3-yl)-6-(piperidin-1-ylmethyl)picolinamide] | > 33
27 | 3.34 ± 0.32 | 4.89 ± 0.47 |  |  |  |  | O=C1CCC(NC(=O)c2cccc(CN3CCCC3=O)n2)C(=O)N1 (centres unmarked) [MGD-B6, N-(2,6-dioxopiperidin-3-yl)-6-((2-oxopyrrolidin-1-yl)methyl)picolinamide] | 27.5 ± 2.62
28 | 5.65 ± 0.54 | 3.21 ± 0.31 |  |  |  |  | O=C1CCC(NC(=O)c2cccc(CN3CCCCC3=O)n2)C(=O)N1 (centres unmarked) [MGD-B7, N-(2,6-dioxopiperidin-3-yl)-6-((2-oxopiperidin-1-yl)methyl)picolinamide] | 15.2 ± 1.44
29 | 0.68 ± 0.07 | 0.93 ± 0.15 |  |  |  |  | O=C1CCC(NC(=O)c2cccc(CN3CCOCC3=O)c2F)C(=O)N1 (centres unmarked) [MGD-C7, N-(2,6-dioxopiperidin-3-yl)-2-fluoro-3-((3-oxomorpholino)methyl)benzamide] | 2.11 ± 0.2
30 | 26.5 ± 2.52 | 9.86 ± 0.94 |  |  |  |  | O=C1CCC(N2C(=O)c3ccccc3C2=O)C(=O)N1 (centres unmarked) [Thalidomide, reference compound] | > 33
31 | 0.93 ± 0.048 | 1.98 ± 0.19 |  |  |  |  | O=C1CCC(NC(=O)c2cccc(CN3CCOCC3)c2F)C(=O)N1 (centres unmarked) [MGD-C3, N-(2,6-dioxopiperidin-3-yl)-2-fluoro-3-(morpholinomethyl)benzamide] | 2.39 ± 0.23
